Experimental data published in patent US20090264433A1, “Compounds, Compositions and Methods Comprising Triazine Derivatives” (Institute for OneWorld Health, priority 2008, published 2009).
Structures can show the parent of a compound that is named as a salt.

Molecular target: T1, CFTR channel in human colonic T84 cells (Homo sapiens, UniProt P13569)
T1 construct: results in the phosphorylation and opening of CFTR anion channels; host or cells: human colonic T84 cells
Assay: T84 assay (FLIPR membrane potential dye, forskolin/IBMX-stimulated CFTR)
Assay type: cell-based
Conditions: average of at least 2 runs unless annotated n = 1
Protocol: (§1) For example, Human colonic T84 cells can be acquired from the European Collection of Cell Cultures (ECACC) and grown in standard culture conditions as described by the supplier. On the day before assay 25,000 T84 cells per well are plated into standard black walled, clear bottom 384-well assay plates in standard growth medium consisting of DMEM:F12 with 10% FBS and incubated overnight. On the day of the assay the plates are washed using a standard assay buffer (HBSS with 10 mM Hepes) and incubated for 15 minutes in serum free cell culture medium before the addition of a commercially available membrane potential sensitive fluorescent dye (FLIPR Red membrane potential dye, Molecular Devices Corporation). T84 cells are incubated with the FLIPR Red membrane potential dye for 45 minutes in the presence and absence of test compound before being transferred to a commercially available fluorescence imaging plate reader (FLIPR384, Molecular Devices Corporation). Fluorescence levels are monitored continuously every second for 150 seconds; after an initial 10 second baseline, CFTR channel activity is stimulated through the addition of 10 μM forskolin in the presence of 100 μM of the phosphodiesterase inhibitor iso-butyl-methylxanthine (IBMX). Addition of the forskolin leads to the activation of intracellular adenylyl cylase 1, elevating cAMP levels and results in the phosphorylation and opening of CFTR anion channels. CFTR channel opening causes chloride ion efflux and subsequent depolarization of the cells, which is measured by an increase in fluorescence. CFTR inhibitor compounds prevent cell depolarization and the associated increase in fluorescence.
as §1, with “Human colonic” for “For example, Human colonic”, “T84 cells are acquired from” for “T84 cells can be acquired from”, “(ECACC) and are grown in” for “(ECACC) and grown in”

T1 sequence (P13569 whole entry): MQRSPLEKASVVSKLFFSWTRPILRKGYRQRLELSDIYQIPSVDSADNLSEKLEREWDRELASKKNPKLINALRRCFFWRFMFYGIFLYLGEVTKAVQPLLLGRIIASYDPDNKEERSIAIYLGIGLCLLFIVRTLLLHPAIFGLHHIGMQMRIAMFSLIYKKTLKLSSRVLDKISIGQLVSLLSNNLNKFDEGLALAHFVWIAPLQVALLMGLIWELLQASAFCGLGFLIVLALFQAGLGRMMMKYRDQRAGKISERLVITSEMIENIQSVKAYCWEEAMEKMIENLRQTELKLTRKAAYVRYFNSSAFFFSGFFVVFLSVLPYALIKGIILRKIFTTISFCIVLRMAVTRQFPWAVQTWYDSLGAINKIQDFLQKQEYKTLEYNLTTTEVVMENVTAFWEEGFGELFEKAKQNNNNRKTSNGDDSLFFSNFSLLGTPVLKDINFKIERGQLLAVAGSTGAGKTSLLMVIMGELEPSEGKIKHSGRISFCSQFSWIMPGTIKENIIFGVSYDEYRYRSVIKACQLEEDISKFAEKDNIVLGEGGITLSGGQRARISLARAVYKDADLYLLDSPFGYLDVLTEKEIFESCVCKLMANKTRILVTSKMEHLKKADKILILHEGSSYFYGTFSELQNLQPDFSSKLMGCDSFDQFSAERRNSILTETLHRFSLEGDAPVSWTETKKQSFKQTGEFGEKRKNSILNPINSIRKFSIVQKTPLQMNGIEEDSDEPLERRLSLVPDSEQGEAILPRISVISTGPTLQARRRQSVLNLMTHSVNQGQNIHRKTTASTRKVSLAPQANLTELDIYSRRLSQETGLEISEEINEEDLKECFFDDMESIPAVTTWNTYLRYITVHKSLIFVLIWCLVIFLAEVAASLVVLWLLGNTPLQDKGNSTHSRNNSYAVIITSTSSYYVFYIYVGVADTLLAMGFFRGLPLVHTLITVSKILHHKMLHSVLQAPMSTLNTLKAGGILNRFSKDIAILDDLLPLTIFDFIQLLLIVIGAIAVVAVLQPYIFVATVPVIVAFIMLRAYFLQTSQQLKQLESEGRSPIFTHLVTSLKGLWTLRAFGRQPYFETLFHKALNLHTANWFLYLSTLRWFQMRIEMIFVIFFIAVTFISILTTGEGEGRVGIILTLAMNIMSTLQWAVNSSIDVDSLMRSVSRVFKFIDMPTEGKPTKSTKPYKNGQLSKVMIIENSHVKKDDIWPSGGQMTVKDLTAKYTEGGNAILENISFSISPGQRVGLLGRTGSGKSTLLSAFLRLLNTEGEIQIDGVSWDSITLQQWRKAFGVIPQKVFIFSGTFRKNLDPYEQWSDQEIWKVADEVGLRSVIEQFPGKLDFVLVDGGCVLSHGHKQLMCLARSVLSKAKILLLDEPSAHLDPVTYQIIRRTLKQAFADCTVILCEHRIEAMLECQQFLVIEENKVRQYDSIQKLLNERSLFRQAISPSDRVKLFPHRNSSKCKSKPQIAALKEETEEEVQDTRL

Compound | IC50 [µM]
CN(Cc1ccc(COc2ncc(-c3cc(Cl)c(O)c(Cl)c3)nn2)cc1)Cc1ccc(Oc2ccccn2)cc1 [Compound 176, 2,6-dichloro-4-(3-(4-((methyl(4-(pyridin-2-yloxy)benzyl)amino)methyl)benzyloxy)-1,2,4-triazin-6-yl)phenol] | 3.92
CN(Cc1ccc(COc2ncc(-c3cc(Cl)c(O)c(Cl)c3)nn2)cc1)Cc1ccc(F)c(F)c1 [Compound 184, 2,6-dichloro-4-(3-(4-(((3,4-difluorobenzyl)(methyl)amino)methyl)benzyloxy)-1,2,4-triazin-6-yl)phenol] | 4.94
Oc1c(Cl)cc(-c2cnc(OCc3ccc(CN4CCN(CCc5ccccc5)CC4)cc3)nn2)cc1Cl [Compound 152, 2,6-dichloro-4-(3-(4-((4-phenethylpiperazin-1-yl)methyl)benzyloxy)-1,2,4-triazin-6-yl)phenol] | 8.88
CN(Cc1ccc(COc2ncc(-c3cc(Cl)c(O)c(Cl)c3)nn2)cc1)Cc1ccc(CN2CCCCC2)cc1 [Compound 208, 2,6-dichloro-4-(3-(4-((methyl(4-(piperidin-1-ylmethyl)benzyl)amino)methyl)benzyloxy)-1,2,4-triazin-6-yl)phenol, formate salt] | 8.24
Cc1cc(OCc2ncc(-c3cc(Br)c(O)c(Br)c3)nn2)cc(C)c1Br [Compound 54, 2,6-dibromo-4-(3-((4-bromo-3,5-dimethylphenoxy)methyl)-1,2,4-triazin-6-yl)phenol] | 22
CN(Cc1ccc(COc2ncc(-c3cc(Cl)c(O)c(Cl)c3)nn2)cc1)Cc1ccc(-c2ccccn2)cc1 [Compound 197, 2,6-dichloro-4-(3-(4-((methyl(4-(pyridin-2-yl)benzyl)amino)methyl)benzyl-oxy)-1,2,4-triazin-6-yl)phenol] | 2.64
Oc1c(Cl)cc(-c2cnc(OCc3ccc(OC(F)(F)F)cc3)nn2)cc1Cl [Compound 154, 2,6-dichloro-4-(3-(4-(trifluoromethoxy)benzyloxy)-1,2,4-triazin-6-yl)phenol] | 1.56
Oc1c(Cl)cc(-c2cnc(OCc3ccc(CNCc4ccc(F)cc4)cc3)nn2)cc1Cl [Compound 164, 2,6-dichloro-4-(3-(4-((4-fluorobenzylamino)methyl)benzyloxy)-1,2,4-triazin-6-yl)phenol] | 28.5
Oc1c(Br)cc(-c2cnc(COc3ccc(Br)cc3)nn2)cc1Br [Compound 49, 2,6-dibromo-4-(3-((4-bromophenoxy)methyl)-1,2,4-triazin-6-yl)phenol] | 15.3
CN(Cc1ccc(COc2ncc(-c3cc(Cl)c(O)c(Cl)c3)nn2)cc1)Cc1cccc(-c2ccncc2)c1 [Compound 177, 2,6-dichloro-4-(3-(4-((methyl(3-(pyridin-4-yl)benzyl)amino)methyl)benzyl-oxy)-1,2,4-triazin-6-yl)phenol] | 2.22
O=C(C1CC1)N1CCN(Cc2ccc(COc3ncc(-c4cc(Cl)c(O)c(Cl)c4)nn3)cc2)CC1 [Compound 219, cyclopropyl(4-(4-((6-(3,5-dichloro-4-hydroxyphenyl)-1,2,4-triazin-3-yloxy)methyl)benzyl)piperazin1-yl)methanone] | 12.4
Oc1c(Cl)cc(-c2cnc(OCc3cccc4ccccc34)nn2)cc1Cl [Compound 116, 2,6-dichloro-4-(3-(naphthalen-1-ylmethoxy)-1,2,4-triazin-6-yl)phenol] | 1.89
CN(Cc1ccc(COc2ncc(-c3cc(Cl)c(O)c(Cl)c3)nn2)cc1)Cc1cccc(-c2cncnc2)c1 [Compound 206, 2,6-dichloro-4-(3-(4-((methyl(3-(pyrimidin-5-yl)benzyl)amino)methyl)benzyl-oxy)-1,2,4-triazin-6-yl)phenol] | 9.6
Oc1c(Br)cc(-c2cnc(OCc3ccc(Cl)cc3Cl)nn2)cc1Br [Compound 15, 2,6-dibromo-4-(3-(2,4-dichlorobenzyloxy)-1,2,4-triazin-6-yl)phenol] | 0.94
Oc1c(Cl)cc(-c2cnc(OCc3ccc(CN4CCN(c5ccc(F)cc5F)CC4)cc3)nn2)cc1Cl [Compound 151, 2,6-dichloro-4-(3-(4-((4-(2,4-difluorophenyl)piperazin-1-yl)methyl)benzyloxy)-1,2,4-triazin-6-yl)phenol] | 1.92
Cc1cc(OCc2ncc(-c3cc(Br)c(O)c(Br)c3)nn2)cc(C)c1Cl [Compound 47, 2,6-dibromo-4-(3-((4-chloro-3,5-dimethylphenoxy)methyl)-1,2,4-triazin-6-yl)phenol] | 14.7

Compound | IC50 [µM]
Oc1c(Br)cc(-c2cnc(C(O)(c3ccc(Cl)cc3)c3ccc(Cl)cc3)nn2)cc1Br [Compound 100, 4-(3-(bis(4-chlorophenyl)(hydroxy)methyl)-1,2,4-triazin-6-yl)-2,6-dibromophenol] | 7.77
Oc1c(Br)cc(-c2cnc(OCc3c(Cl)cc(Cl)cc3Cl)nn2)cc1Br [Compound 22, 2,6-dibromo-4-(3-(2,4,6-trichlorobenzyloxy)-1,2,4-triazin-6-yl)phenol] | 2.33
CN(Cc1ccc(COc2ncc(-c3cc(Cl)c(O)c(Cl)c3)nn2)cc1)Cc1cccc(-c2cccnc2)c1 [Compound 213, 2,6-dichloro-4-(3-(4-((methyl(3-(pyridin-3-yl)benzyl)amino)methyl)benzyl-oxy)-1,2,4-triazin-6-yl)phenol] | 4.31
Oc1c(Br)cc(-c2cnc(OCCc3ccc(Cl)cc3)nn2)cc1Br [Compound 90, 2,6-dibromo-4-(3-(4-chlorophenethoxy)-1,2,4-triazin-6-yl)phenol] | 0.17
Oc1c(Br)cc(-c2cnc(OCc3ccc(F)cc3F)nn2)cc1Br [Compound 4, 2,6-dibromo-4-(3-(2,4-difluorobenzyloxy)-1,2,4-triazin-6-yl)phenol] | 0.54
CN1CCN(c2ccc(CNc3ncc(-c4cc(Cl)c(O)c(Cl)c4)nn3)cc2)CC1 [Compound 137, 2,6-dichloro-4-(3-(4-(4-methylpiperazin-1-yl)benzylamino)-1,2,4-triazin-6-yl)phenol, formate salt] | 21.3
CN(C)c1cccc(COc2ncc(-c3cc(Cl)c(O)c(Cl)c3)nn2)c1 [Compound 119, 2,6-dichloro-4-(3-(3-(dimethylamino)benzyloxy)-1,2,4-triazin-6-yl)phenol] | 3.4
Cc1ccc(OCc2ncc(-c3cc(Br)c(O)c(Br)c3)nn2)c2c1CCC2 [Compound 45, 2,6-dibromo-4-(3-((7-methyl-2,3-dihydro-1H-inden-4-yloxy)methyl)-1,2,4-triazin-6-yl)phenol] | 14.1
CN(Cc1ccncc1)Cc1ccc(COc2ncc(-c3cc(Cl)c(O)c(Cl)c3)nn2)cc1 [Compound 175, 2,6-dichloro-4-(3-(4-((methyl(pyridin-4-ylmethyl)amino)methyl)benzyl-oxy)-1,2,4-triazin-6-yl)phenol] | 11.7
Oc1c(Br)cc(-c2cnc(COc3cccc(Cl)c3Cl)nn2)cc1Br [Compound 30, 2,6-dibromo-4-(3-((2,3-dichlorophenoxy)methyl)-1,2,4-triazin-6-yl)phenol] | 9.59
O=C(c1cccnc1)N1CCN(Cc2ccc(COc3ncc(-c4cc(Cl)c(O)c(Cl)c4)nn3)cc2)CC1 [Compound 224, (4-(4-((6-(3,5-dichloro-4-hydroxyphenyl)-1,2,4-triazin-3-yloxy)methyl)benzyl)piperazin-1-yl)(pyridin-3-yl)methanone] | 11.8
Oc1c(Cl)cc(-c2cnc(OCc3ccc(CN4CCC(O)(c5ccccc5)CC4)cc3)nn2)cc1Cl [Compound 173, 1-(4-((6-(3,5-dichloro-4-hydroxyphenyl)-1,2,4-triazin-3-yloxy)methyl)benzyl)-4-phenylpiperidin-4-ol] | 28.4
CN(C)CCOc1ccc(CN(C)Cc2ccc(COc3ncc(-c4cc(Cl)c(O)c(Cl)c4)nn3)cc2)cc1 [Compound 198, 2,6-dichloro-4-(3-(4-(((4-(2-(dimethylamino)ethoxy)benzyl)(methyl)amino)methyl)benzyloxy)-1,2,4-triazin-6-yl)phenol] | 9.94
CC(C)(C)c1ccc(CCOc2ncc(-c3cc(Br)c(O)c(Br)c3)nn2)cc1 [Compound 93, 2,6-dibromo-4-(3-(4-tert-butylphenethoxy)-1,2,4-triazin-6-yl)phenol] | 0.64
Oc1c(Cl)cc(-c2cnc(OCCc3ccc(F)cc3)nn2)cc1Cl [Compound 179, 2,6-dichloro-4-(3-(4-fluorophenethoxy)-1,2,4-triazin-6-yl)phenol] | 2.33
